One series has as its system RAW 264.7 cells. Put plainly: Osteoclast differentiation assay (RANKL). It counts as cell-based, mouse. Particulars: RAW 264.7, 5 mM (printed) honokiol 12 h, 5 nM RANKL. The method, then: (A) RAW 264.7 cells (1×10^4) were plated overnight, pretreated with 5 mM honokiol for 12 h, and then treated with 5 nM RANKL. At 4 and 5 days later, cells were stained for TRAP and evaluated for osteoclastogenesis. Photographs were taken after 5 days of incubation with RANKL. (B) The numbers of TRAP-positive multinucleated osteoclasts (>3 nuclei) per well were counted. (C) H1299 cells (2.5×10^4) were seeded into the upper wells of a Matrigel invasion chamber overnight in the absence of serum, pretreated with […] honokiol for 12 h, treated with 1 nM TNF for 24 h in the presence of 1% serum, and then subjected to invasion assay. The value for no honokiol and no TNF was set to 1.0.
Osteoclast differentiation assay. […] At days 4 and 5, the cells were stained for tartrate-resistant acid phosphatase (TRAP) expression, as previously described (18) using an acid phosphatase kit (Sigma-Aldrich), and the TRAP-positive multinucleated osteoclasts (>3 nuclei) per well were counted.
Honokiol suppresses RANKL-induced osteoclastogenesis. Because RANKL, a member of the TNF superfamily, induces osteoclastogenesis through the activation of NF-kB (Abu-Amer, Y., et al. 1997 Nat. Med. 3:1189-1190), whether honokiol can suppress RANKL-induced osteoclastogenesis was assessed. […]

The next series concerns SVR cells. Put plainly: apoptosis of SVR cells. It counts as cell-based. To be noted: 18 and 48 h. The method, then: FIG. 13 illustrates the effect of honokiol and magnolol on apoptosis. The light columns represent SVR cells treated with magnolol, and the dark columns represent SVR cells treated with honokiol. The control lanes represent cells immediately after treatment compared with 18 and 48 h of treatment.

In series [1] the test system is AKT, p44/42 MAPK, and Src phosphorylation in SVR cells. Put plainly: Western blotting of phosphorylated intracellular proteins. It counts as cell-based. An excerpt: FIG. 14 depicts the effects of honokiol on the phosphorylation of various intracellular proteins. […] Cells were lysed and analyzed by Western blotting using antibodies specific for the phosphorylated (P-AKT, P-MAPK, and P-Src) or unphosphorylated forms of AKT and MAPK. […] Cells were lysed and analyzed by Western blotting using antibodies specific for the phosphorylated (P-Akt, P-MAPK, and P-Src) or unphosphorylated forms of Akt and MAPK.
Background: In western blotting, separated proteins are transferred to a membrane and probed.

For another series, the system named is SVR angiosarcoma. Nature of the series: in vivo growth of SVR angiosarcoma. To be noted: nude mice. An excerpt: FIG. 18 depicts the effect of honokiol on in vivo growth of SVR angiosarcoma in nude mice.
FIG. 18 illustrates the effect of honokiol on in vivo growth of SVR angiosarcoma in nude mice.

A further series has as its system rat papillary muscles. Put plainly: glucose uptake by insulin.
The subject of another series is COX2 promoter. Put plainly: COX-2 promoter-dependent reporter luciferase gene expression. It counts as cell-based, human. Particulars: 0.1 nM TNF 24 h.
The next series concerns KBM-5 cells. Put plainly: Annexin V assay. It counts as cell-based, human. To be noted: KBM-5, honokiol 12 h then 1 nM TNF 16 h. An excerpt: (D) depicts that honokiol enhances TNF-induced cell death.
Annexin V assay. One of the early indicators of apoptosis is the rapid translocation and accumulation of the membrane phospholipid phosphatidylserine from the cell's cytoplasmic interface to the extracellular surface. This loss of membrane asymmetry can be detected using the binding properties of annexin V. Annexin V antibody conjugated with the fluorescent dye FITC was used to detect apoptosis. Briefly, 1×10^6 cells were pretreated with […] honokiol for 12 h, treated with 1 nM TNF for 16 h, and then subjected to annexin V staining. Cells were washed, stained with FITC-conjugated anti-annexin V antibody, and then analyzed with a flow cytometer (FACSCalibur; BD Biosciences).
By using caspase-activated PARP cleavage, it was shown that the enhanced cytotoxicity was due to apoptosis. TNF-induced PARP cleavage was enhanced in the honokiol-treated cells (FIG. 26C).

The text below walks through data of patent US20080300298A1, “Honokiol Derivates For the Treatment of Proliferative Disorders” (priority 2005, published 2008).

Experimental for COX2 promoter: H1299 cells were transiently transfected with a COX-2 promoter plasmid linked to the luciferase gene and then treated with the indicated concentrations of honokiol. After 24 h in culture with 0.1 nM TNF, cell supernatants were collected and assayed for luciferase activity. Results are expressed as fold activity over the activity of the vector control. Values are means ±SD (indicated as error bars) of triplicate cultures for a representative experiment out of 3 independent ones showing similar results.
COX-2 promoter-dependent reporter luciferase gene expression. COX-2 promoter activity was examined as described elsewhere (Shishodia, S., et al. 2003 Cancer Res. 63:4375-4383). To further determine the effect of honokiol on COX-2 promoter, A293 cells were seeded at a concentration of 1.5×10^5 cells per well in six-well plates. […] The COX-2 promoter (−375 to +59), which was amplified from human genomic DNA by using the primers 5′-[sequence]-3′ (sense) and 5′-[sequence]-3′ (antisense). After a 6-h exposure to the transfection mixture, the cells were incubated in medium containing honokiol for 12 h. The cells were exposed to TNF (0.1 nM) for 24 h and then harvested. Luciferase activity was measured by using the Luclite luciferase assay system (Perkin-Elmer, Boston, Mass.) according to the manufacturer's protocol and detected by luminometer (Victor 3, Perkin-Elmer).

For `C=CCc1ccc(O)c(-c2ccc(O)c(CC=C)c2)c1` [HNK, Honokiol], in the series with RAW 264.7 cells, the “RANKL-induced osteoclast differentiation (TRAP)” value is “suppressed it”. Also, the “induction of apoptosis compared with magnolol” value in the series with SVR cells is recorded as “more effective in the induction of apoptosis than magnolol”. The “phosphorylation of Akt, p44/42 MAPK, Src at low concentrations” value in series [1] (2.7, 6.7 or 13.3 μg/ml, 2, 6 or 24 h) is “inhibits phosphorylation of Akt at low concentrations but not p44/42 MAPK or Src”. Also, the “phosphorylation of AKT, p44/42 MAPK, and Src” value in series [1] (20, 30, 40 or 45 μg/ml, 1 h) is “inhibits phosphorylation of AKT, p44/42 MAPK, and Src”. Besides, in the series on SVR angiosarcoma, the “in vivo growth of SVR angiosarcoma” value was “effective against tumors in vivo” and the “toxicity to the host animal” value is given as “nontoxic to the host animal”. Moreover, in the series with rat papillary muscles, the “glucose uptake by insulin” value is reported as “potentiates glucose uptake by insulin”. Besides, the “TNF-induced COX2 promoter activity” value in the series on COX2 promoter is on record as “inhibited the TNF-induced COX2 promoter activity in a dose-dependent manner”. For the same compound, the “TNF-induced early apoptosis (annexin V staining)” value in the series on KBM-5 cells is “quite effective in enhancing the effects of TNF”.
